# Test results: patent US9057082B2, “Generation of methane from hydrocarbon bearing materials” (Transworld Technologies Inc., priority 2004, dated 2015)
# System: anaerobic microbial consortium or consortia indigenous to the coal
# Assay: Hydrogen gas accumulated in headspace of amended Dietz coal slurries
# Conditions: approximately 134 days of incubation
# From the text: Core samples from the Tongue River area in the northwest portion of the Powder River Basin, Dietz coal seam, were utilized for these experiments. The core was collected in the field in a manner that prevented oxygen exposure by placing it into a steel canister that was purged with argon. Gas in the core used for the experiments described herein was extensively desorbed during long-term storage and previous use.
# Coal samples were passed through a small jaw crusher twice resulting in pulverized coal (to yield a particle size similar to that of granulated sugar) that was measured into serum bottles (5 g per bottle); manipulations were carried out in an anaerobic environment. […]
# Bromoethanesulfonic acid (BESA), a methanogen inhibitor, was added to selected incubations. […] Hydrogen production in the amended slurries relative to sterile coal slurries was measured to identify the degree of stimulation.
# After approximately 134 days of incubation, all of the coal slurries were sampled for the aqueous phase (0.5 of 10 ml) and for gas analysis including hydrogen, methane, carbon dioxide, radioactive methane, and radioactive carbon dioxide. Methane and carbon dioxide were determined using a Hewlett Packard 5890 gas chromatograph equipped with a thermal conductivity detector. Radiolabeled methane and carbon dioxide were determined using a gas proportional counter (Innus Systems, Tampa, Fla.). […]
substance,measurement,value
Bromoethanesulfonic acid [BESA],"hydrogen gas accumulation in the headspace, result in words",Hydrogen accumulated to the greatest extent
